From ChEMBL document CHEMBL2375223, “Disulfide linked pyrazole derivatives inhibit phagocytosis of opsonized blood cells” (Bioorg Med Chem Lett, 2013)
Activity calls are given as the source filed them. The rule behind the calls is not given here.

Key:
[1] = target: High affinity immunoglobulin gamma Fc receptor I (Homo sapiens) (UniProt P12314); test: Inhibition of FCgamma receptor in human PBMC assessed as inhibition of opsonized RBC phagocytosis at 5 uM incubated for 1 hr prior to RBC addition measured after 2 hrs by monocyte monolayer assay relative to control
Chain of High affinity immunoglobulin gamma Fc receptor I (Homo sapiens) (P12314 whole entry): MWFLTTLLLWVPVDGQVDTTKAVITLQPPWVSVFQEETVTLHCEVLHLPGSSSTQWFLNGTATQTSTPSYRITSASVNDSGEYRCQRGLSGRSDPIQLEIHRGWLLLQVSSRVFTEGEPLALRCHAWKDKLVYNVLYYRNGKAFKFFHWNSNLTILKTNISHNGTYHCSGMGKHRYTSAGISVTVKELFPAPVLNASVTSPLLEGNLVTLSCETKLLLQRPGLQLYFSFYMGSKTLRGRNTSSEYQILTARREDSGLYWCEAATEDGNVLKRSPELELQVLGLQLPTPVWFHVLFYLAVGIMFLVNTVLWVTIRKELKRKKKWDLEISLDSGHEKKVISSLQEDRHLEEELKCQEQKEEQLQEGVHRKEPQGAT

PBMC = test: Induction of apoptosis in human PBMC at 5 uM assessed as apoptotic index after 1 hr by Annexin V-APC/propidium iodide staining-based FACS analysis relative to IVIG; type: functional
[2] = target: High affinity immunoglobulin gamma Fc receptor I (Homo sapiens) (UniProt P12314); test: Inhibition of FCgamma receptor in human PBMC assessed as inhibition of opsonized RBC phagocytosis at 1 mM incubated for 1 hr prior to RBC addition measured after 2 hrs by monocyte monolayer assay relative to control

Row | SMILES | inhibition [1] | inhibition [2] | fold change (FC) (PBMC)
1 | Cc1nn(-c2ccccc2)c(S)c1C(=O)c1ccno1 | inactive | – | –
2 | Cc1nn(-c2ccccc2)c(SSc2c(C(=O)N3CCCCC3)c(C)nn2-c2ccccc2)c1C(=O)N1CCCCC1 | 34% | – | 1.87
3 | Cc1nn(-c2ccccc2)c(SSc2c(C(=O)N3CCOCC3)c(C)nn2-c2ccccc2)c1C(=O)N1CCOCC1 | 20% | – | 1.88
4 | Cc1nn(-c2ccccc2)c(SSc2c(C(=O)c3ccccc3)c(C)nn2-c2ccccc2)c1C(=O)c1ccccc1 | 22% | – | 1.04

Continued, in another order:

Row | inhibition [1] | inhibition [2] | SMILES | fold change (FC) (PBMC)
5 | 19% | – | Cc1nn(-c2ccccc2)c(SSc2c(C(=O)c3cccs3)c(C)nn2-c2ccccc2)c1C(=O)c1cccs1 | 0.69
6 | 0% | inactive | Cc1nn(-c2ccccc2)c(S)c1C(=O)c1ccccc1 | 1.29
7 | 43% | – | Cc1cc(SSc2cc(C)nn2-c2ccccc2)n(-c2ccccc2)n1 | 2.78
